Experimental data published in patent US11046962B2, “Lux expression in cells and methods of use” (490 BioTech, Inc., priority 2019, dated 2021).
pEC50, pIC50: −log10 of the molar value.

Experiments:
[1] = system: iPSC-derived cardiomyocytes (CMs); test: Doxorubicin exposure of cardiomyocytes differentiated from tet-luxCDABEF/tTA iPSCs, autobioluminescence imaging; assay type: cell-based; settings: Homo sapiens, Cardiomyocyte, 18 hours exposure prior to imaging, read-out: estimated EC50
Description: FIG. 16. Human induced pluripotent stem cells (iPSCs) bearing genomically integrated polycistronic lux operon (luxCDABEF) under control of the tetracycline responsive promoter (tet-luxCDABEF) and a separately integrated CBA-driven transactivator (tTA) were differentiated into cardiomyocytes (CMs). After maturation for approximately 1.5 weeks, the CMs were subjected to doxorubicin exposure. CMs were exposed to doxorubicin at the indicated range of concentrations for 18 hours prior to imaging.

[2] = system: CM-luxAB/CDEF cardiomyocytes; test: Cardiotoxicity reporting by CM-luxAB/CDEF line, autobioluminescent output after 24 hours; assay type: cell-based; settings: Homo sapiens, Cardiomyocyte, 24 hours of treatment
Description: The autobioluminescent CM-luxAB/CDEF line was treated with a range of doxorubicin (uM) concentrations, and autobioluminescent output was measured after 24 hours of treatment.
The CM-luxAB/CDEF line was treated with a range of doxorubicin concentrations, and the autobioluminescent output was measured after twenty-four (24) hours of treatment. The percent change in average radiance (p/s/cm^2/sr) relative to control was plotted against the corresponding doxorubicin (uM) treatment.

iPSC-luxAB/CDEF cells = test: Compound toxicity tracking in iPSC-luxAB/CDEF line by autonomous luminescent output and MTT; assay type: cell-based, Human; settings: range of concentrations, 24 hours
Description: First, iPSC-luxAB/CDEF cells were seeded in a volume of medium in two separate multi-well plates. Identical platings of untransfected cells were made along with platings of medium to serve as positive and negative controls. For the first plate, the cells were subjected to increasing concentrations of the cytotoxic compound doxorubin. For the second plate, the cells were subjected to increasing concentrations of the cytotoxic compound rotenone. The cells were then incubated under standard growth conditions for twenty four (24) hours. After this time period, the plates was imaged for luminescent output. Bioluminescent readings were obtained using a Synergyll plate reader (BioTek).
Following this reading, the plates were subjected to viability analysis using the MTT assay according to the manufacturer's instructions. MTT assay values were obtained as absorbance values at 570 nm using a Synergyll plate reader (BioTek) and reported as percentage of absorbance relative to untreated control cells. For all measurements, the background absorbance values derived from the medium only controls were subtracted to provide background corrected averages. Absorbance values from each treatment level were averaged, and the average values for each of the plates were used to determine standard errors of the mean for each assay.

[3] = system: CM-luxAB/CDEF cardiomyocytes; test: Continuous cardiotoxicity monitoring with CM-luxAB/CDEF cardiomyocytes over 30 hours

## COc1cccc2c1C(=O)c1c(O)c3c(c(O)c1C2=O)C[C@@](O)(C(=O)CO)C[C@@H]3O[C@H]1C[C@H](N)[C@H](O)[C@H](C)O1 [doxorubicin]
[1]
  pEC50: 6.13 to 6.39
[2]
  pIC50: 6.54
iPSC-luxAB/CDEF cells
  change of autonomous luminescent signal output indicative of cellular viability: dose dependent changes
[3]; kinetic IC50 values over time course, measured every 10 minutes
  time of exposure at which the IC50 stabilizes: ~30 h
[3]; real time monitoring, 25 hours after addition
  autobioluminescent output with increasing concentrations: decreasing autobioluminescent output
